Reference: the NIST ThermoML archive (doi:10.1021/je900743e)
± gives the expanded uncertainty stated by the source.

How the values were obtained:
[1] = Crystal; visual observation
[2] = wn = mass fraction of the nth substance listed; conditions: 101 kPa, Liquid; for viscosity: Capillary tube (Ostwald / Ubbelohde) method; for mass density: Pycnometric method

Compound [Br-].[Br-].c1cc[n+](CCCCC[n+]2ccccc2)cc1 [1,1'-(pentane-1,5-diyl)-bis(pyridinium) dibromide] has a Normal melting temperature [1] of 198.00 ± 2.9 °C.
For CCO [ethanol] + O, the viscosity ([2]; 293.15 K, w1 = 0.1) was 1.538 ± 0.034 mPa·s, the viscosity ([2]; 293.15 K, w1 = 0.2) was 2.183 ± 0.05 mPa·s and the viscosity ([2]; 293.15 K, w1 = 0.3) was 2.701 ± 0.064 mPa·s. The viscosity ([2]; 293.15 K, w1 = 0.4) was 2.91 ± 0.071 mPa·s, the viscosity ([2]; 293.15 K, w1 = 0.5) was 2.87 ± 0.074 mPa·s and the mass density ([2]; 293.15 K, w1 = 0.1) was 981.8 ± 0.6 kg/m3. It also gave a mass density ([2]; 293.15 K, w1 = 0.2) of 968.2 ± 0.8 kg/m3, a mass density ([2]; 293.15 K, w1 = 0.3) of 953.6 ± 1.1 kg/m3 and a mass density ([2]; 293.15 K, w1 = 0.4) of 935.5 ± 1.4 kg/m3. The mass density ([2]; 293.15 K, w1 = 0.5) was 913.9 ± 1.8 kg/m3, the viscosity ([2]; 303.15 K, w1 = 0.1) was 1.16 ± 0.026 mPa·s and the viscosity ([2]; 303.15 K, w1 = 0.2) was 1.553 ± 0.035 mPa·s. It also gave a viscosity ([2]; 303.15 K, w1 = 0.3) of 1.87 ± 0.044 mPa·s, a viscosity ([2]; 303.15 K, w1 = 0.4) of 2.02 ± 0.05 mPa·s and a viscosity ([2]; 303.15 K, w1 = 0.5) of 2.022 ± 0.052 mPa·s. The mass density ([2]; 303.15 K, w1 = 0.1) was 979 ± 0.6 kg/m3, the mass density ([2]; 303.15 K, w1 = 0.2) was 964.1 ± 0.9 kg/m3 and the mass density ([2]; 303.15 K, w1 = 0.3) was 947.4 ± 1.1 kg/m3. The mass density ([2]; 303.15 K, w1 = 0.4) was 927.2 ± 1.4 kg/m3, the mass density ([2]; 303.15 K, w1 = 0.5) was 905.6 ± 1.8 kg/m3 and the viscosity ([2]; 313.15 K, w1 = 0.1) was 0.9068 ± 0.02 mPa·s. For the same compound, the viscosity ([2]; 313.15 K, w1 = 0.2) was 1.16 ± 0.027 mPa·s, the viscosity ([2]; 313.15 K, w1 = 0.3) was 1.368 ± 0.032 mPa·s and the viscosity ([2]; 313.15 K, w1 = 0.4) was 1.482 ± 0.037 mPa·s. For the same compound, the viscosity ([2]; 313.15 K, w1 = 0.5) was 1.499 ± 0.039 mPa·s, the mass density ([2]; 313.15 K, w1 = 0.1) was 974.6 ± 0.6 kg/m3 and the mass density ([2]; 313.15 K, w1 = 0.2) was 958.7 ± 0.9 kg/m3. The mass density ([2]; 313.15 K, w1 = 0.3) was 940.3 ± 1.1 kg/m3, the mass density ([2]; 313.15 K, w1 = 0.4) was 919.8 ± 1.4 kg/m3 and the mass density ([2]; 313.15 K, w1 = 0.5) was 897.6 ± 1.7 kg/m3.
